Assay results: BindingDB's records for doi:10.1021/acs.jmedchem.7b01670 (Vrije Universiteit Amsterdam, 2018)

Columns and labels:
[1] = target: cAMP-specific 3',5'-cyclic phosphodiesterase 4B (Homo sapiens, UniProt Q07343); assay: Inhibition of full length recombinant human PDE4B1 expressed in Sf21 insect cells using cAMP as substrate by scintillation proximity assay
Phosphodiesterase = target: T1, Phosphodiesterase (Trypanosoma brucei, UniProt Q8WQX9); assay: Inhibition of full length Trypanosoma brucei PDEB1 expressed in Sf21 insect cells using cAMP as substrate by scintillation proximity assay
T1 sequence (Q8WQX9 whole entry): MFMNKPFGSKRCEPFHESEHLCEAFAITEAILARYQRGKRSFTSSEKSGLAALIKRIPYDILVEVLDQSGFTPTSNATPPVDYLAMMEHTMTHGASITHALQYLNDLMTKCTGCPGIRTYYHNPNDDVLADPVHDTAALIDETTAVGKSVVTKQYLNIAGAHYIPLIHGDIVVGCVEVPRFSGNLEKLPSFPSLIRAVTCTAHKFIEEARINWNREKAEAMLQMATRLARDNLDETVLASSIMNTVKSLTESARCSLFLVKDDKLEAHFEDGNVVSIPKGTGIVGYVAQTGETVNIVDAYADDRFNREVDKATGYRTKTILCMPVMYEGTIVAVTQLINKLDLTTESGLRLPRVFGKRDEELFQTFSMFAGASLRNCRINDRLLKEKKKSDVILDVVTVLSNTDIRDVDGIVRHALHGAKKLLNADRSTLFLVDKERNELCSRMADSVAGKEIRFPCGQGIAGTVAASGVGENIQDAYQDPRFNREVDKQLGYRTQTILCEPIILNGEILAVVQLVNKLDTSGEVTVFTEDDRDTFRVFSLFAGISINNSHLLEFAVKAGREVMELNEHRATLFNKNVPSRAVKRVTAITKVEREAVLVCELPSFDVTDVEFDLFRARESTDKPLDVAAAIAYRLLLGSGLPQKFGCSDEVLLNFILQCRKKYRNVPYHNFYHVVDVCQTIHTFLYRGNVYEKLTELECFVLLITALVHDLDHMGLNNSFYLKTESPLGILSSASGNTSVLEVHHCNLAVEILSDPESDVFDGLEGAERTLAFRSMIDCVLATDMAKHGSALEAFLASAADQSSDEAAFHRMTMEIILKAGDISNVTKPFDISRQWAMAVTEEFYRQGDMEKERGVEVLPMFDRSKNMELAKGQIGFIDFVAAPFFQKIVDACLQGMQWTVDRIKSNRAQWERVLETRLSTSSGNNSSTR

Chain of cAMP-specific 3',5'-cyclic phosphodiesterase 4B (Q07343 whole entry): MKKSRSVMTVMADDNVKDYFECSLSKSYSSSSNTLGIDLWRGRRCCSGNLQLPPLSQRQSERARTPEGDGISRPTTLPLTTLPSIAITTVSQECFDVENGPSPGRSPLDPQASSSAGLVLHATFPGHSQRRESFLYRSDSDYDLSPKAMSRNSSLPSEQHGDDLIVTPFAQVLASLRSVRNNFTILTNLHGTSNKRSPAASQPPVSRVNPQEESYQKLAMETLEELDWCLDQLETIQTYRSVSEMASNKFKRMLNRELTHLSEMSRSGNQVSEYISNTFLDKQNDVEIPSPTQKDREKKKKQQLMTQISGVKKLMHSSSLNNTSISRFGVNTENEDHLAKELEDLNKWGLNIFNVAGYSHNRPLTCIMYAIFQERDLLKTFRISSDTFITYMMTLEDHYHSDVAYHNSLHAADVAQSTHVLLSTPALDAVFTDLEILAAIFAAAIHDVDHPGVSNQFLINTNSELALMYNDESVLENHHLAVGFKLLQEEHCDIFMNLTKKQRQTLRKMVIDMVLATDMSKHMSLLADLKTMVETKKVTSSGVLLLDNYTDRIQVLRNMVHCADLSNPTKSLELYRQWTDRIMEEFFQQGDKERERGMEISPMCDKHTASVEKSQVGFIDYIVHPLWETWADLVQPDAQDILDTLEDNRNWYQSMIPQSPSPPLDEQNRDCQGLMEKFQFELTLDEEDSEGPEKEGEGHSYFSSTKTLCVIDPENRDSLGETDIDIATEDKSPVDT

Structure (SMILES) | Ki [1] [nM] | Ki (Phosphodiesterase) [nM]
COc1ccc(C2=NN(C3CCCCCC3)C(=O)[C@@H]3CC=CC[C@H]23)cc1-c1ccc(C(=O)NCC(N)=O)cc1 | 630 | 40
COc1ccc(C2=NN(C3CCCCCC3)C(=O)[C@@H]3CC=CC[C@H]23)cc1-c1ccc(C(=O)N2CCC(=O)C2)cc1 | 3160 | 1000
COc1ccc(C2=NN(C3CCCCCC3)C(=O)[C@@H]3CC=CC[C@H]23)cc1-c1ccc(C(=O)N2CC(=O)N(C)C2)cc1 | 2510 | 1580
COc1ccc(C2=NN(C3CCCCCC3)C(=O)[C@@H]3CC=CC[C@H]23)cc1-c1ccc(C(=O)N2CNC(=O)C2)cc1 | 631 | 631
